According to patent US7524943B2, “Method for the production of plant seed with modified fiber content and modified seed coat” (National Research Council of Canada, priority 2001, dated 2009):

Assays:
CJAS1 gene = CJAS1 gene expression by Northern blot after treatments; assay type: in vivo, B. carinata; settings: treatment of wild-type Brassica plants; data not shown
Source text: CJAS1 gene expression was studied via Northern blot of various plant tissues taken from wild-type Brassica plants (data not shown). […] The amount of transcript in flower bud and silique was slightly greater than in the other tissues. […] The rapid response to Cu and MeJA implies a control mechanism sensitive to membrane damage. The activation of CJAS1 transcription by the four different compounds is unusual but not without precedent.

CJAS1 = assay: Inhibitor effects on induction/expression of CJAS1; assay type: in vivo, B. carinata; settings: data not shown; for CJAS1 transcript accumulation: non-induced material
Method: The effects of the nitric oxide (NO) scavenger 2-phenyl-4,4,5,5-tetramethylimidazolinone-3-oxide-1-oxyl (PTIO), the protein phosphatase type 1 and 2A inhibitor okadaic acid (OKA), the serine/threonine protein kinases inhibitor staurosporine (STAU) and the protein translation inhibitor cycloheximide (CHX) were determined on induction/expression of CJAS1 in B. carinata.

[1] = test system: Escherichia coli GMP synthetase mutant ght1; assay: Complementation of Escherichia coli GMP synthetase mutant ght1; assay type: cell-based; settings: cDNA in expression vector
Source text: Thus, it is postulated that the protein encodes an amidotransferase activity distinct from GMP synthase that utilizes an aromatic compound for a substrate. This is analogous to a similar step seen for the phenylpropanoid pathway, another pathway that is involved in the formation of fiber (and the seed coat) and is a pathway that utilizes aromatic compounds. In the phenylpropanoid pathway, L-phenyalanine, an aromatic amino acid, is a substrate for the enzyme phenyalanine ammonia lyase (PAL). The enzymatic activity of PAL leads to the formation of cinnamic acid by deamination which eventually leads to the formation of lignin monomers. In the present case, CJAS1 may be a subunit of an enzyme that encodes a […] activity utilized within another secondary metabolite pathway and reduction of the enzyme activity (as evidenced by antisense RNA inhibition of the gene expression) can lead to alteration in the formation of phenolic-related compounds. This alteration may further affect the formation of other compounds in the seed, in particular, compounds that are known to be related to fiber formation.

B. carinata = assay: Visual characterization of seed coat color of transformed B. carinata; assay type: in vivo
Source text: The plant transformation vectors carrying the antisense genes made with the defense-related cDNAs were used for plant transformation. The plant species used for transformation was a selection of B. carinata, the same selection that was originally treated with Copper chloride. This selection of B. carinata has dark-colored, thick seed coats. For transformation, Agrobacterium tumifaciens strain GV3101/pMP90 (C. Koncz and J. Schell, 1986, Mol. Gen. Genet. 204:383-396) was used. The transformation vectors were introduced into the Agrobacterium strain using standard techniques. Plant explants were co-cultured for three days then transferred to selective media. Plants were selected on kanamycin.
Transformed B. carinata were analyzed by visual characterization. […] A sample comparison of seeds obtained from wild-type B. carinata and transgenic B. carinata expressing antisense CJAS1 (SEQ ID NO:1) is shown in FIG. 2a and FIG. 2b.

CC1=CC(=O)CC(C)(C)C1(O)/C=C/C(C)=C\C(=O)O (stereo not drawn) [ABA]
amount of CJAS1 transcript (CJAS1 gene): further increased

[Cl][Cu][Cl] [Cu, copper chloride]
amount of CJAS1 transcript (CJAS1 gene): further increased

CC/C=C\CC1C(=O)CCC1CC(=O)OC (stereo not drawn) [MeJA]
amount of CJAS1 transcript (CJAS1 gene): further increased

C=C1[C@@H](O)[C@@H]2O[C@]3(CC[C@H](/C=C/[C@@H](C)[C@@H]4CC(C)=C[C@@]5(O[C@H](C[C@@](C)(O)C(=O)O)CC[C@H]5O)O4)O3)CC[C@H]2O[C@@H]1[C@@H](O)C[C@H](C)[C@H]1O[C@@]2(CCCCO2)CC[C@H]1C [OKA, okadaic acid]
CJAS1 transcript accumulation (CJAS1): increased

CC1(C)N([O])C(c2ccccc2)=[N+]([O-])C1(C)C [PTIO, 2-phenyl-4,4,5,5-tetramethylimidazolinone-3-oxide-1-oxyl]
CJAS1 transcript accumulation (CJAS1): increased

O=C(O)c1ccccc1O [SA]
amount of CJAS1 transcript (CJAS1 gene): further increased

CN[C@@H]1C[C@H]2O[C@@](C)([C@@H]1OC)n1c3ccccc3c3c4c(c5c6ccccc6n2c5c31)C(=O)NC4 [STAU, staurosporine]
CJAS1 transcript accumulation (CJAS1): increased | interaction with MeJA in induction of CJAS1 expression (CJAS1; with MeJA): acted synergistically

C[C@@H]1C[C@@H]([C@H](O)CC2CC(=O)NC(=O)C2)C(=O)[C@@H](C)C1 [cycloheximide]
CJAS1 transcript accumulation (CJAS1): increased

B1: CJAS1 cDNA: copper chloride-induced cDNA from B. carinata, expressed in antisense orientation from a double 35S promoter (nucleic acid, listed as Brassica carinata)
DNA: ATTGCACCTCTCTCTTTATTCTCTCTCTGCTAATCAACCACTCTCTCTATTTACGTTAGCCGGTAAAAAAATGGTTGAGCAGAAAAAGTTCGCTCTGTTTCTAGCGACTCCTGATTCAGAGTTCGTGAAGAAAGAGTACGGAGGATACCACAACGTGTTCGTGTCCACGTTCGGTGACGAAGGAGAGCATTGGGACTCGTTTAGAGTCGTTGAAGGCGAGTTTCCCGACGAGAAAGATCTTGACAAGTACGACGGTTTCGTTATTAGTGGAAGCTCTCACGATTCCTTCGAGAATGATCCTTGGATCCTTAGGCTATGTGAGATCGTCAAGATACTCGATGAGAAGAAGAAGAAAATTCTTGGCATATGCTTTGGTCACCAGATCATAGCCAGAGTAAGAGGAGGAACAGTGGGAAGAGCAAGGAAGGGACCAGAACTTAAGCTTACAGACATAACCATCGTGAAGGATGCGATTAAACCAGGAAGTTTCTTCGGAAACGAGATTCCGGATAGCATAGCCATCCTAAAGTTACATCAGGACGAAGTGTTAGTGTTGCCTGAATCTGCTAAAGTACTAGCTTATTCAGAAAAGTACGAGGTGGAGATGTTCTCCATTGAGGATCATTTATTCTGTATTCAAGGACATCCCGAGTATAACAGAGAGATTCTCCACGAGATCGTTGATCGTGTTCTTCGTCTTGGCTTCATCAAGGAAGATTTTGCGGATGCGGCAAAAGCCTCGATGGAGAATAGGGGAGCAGACAGGAAACTTTTGGAGACGATTTGCAAGAATTTTCTCAAAGGCAGAGTTCCAGCTAATTAATTAGTTTCACTCCCAAATTATCTATTTGGCTCTTGTTATATTGGAGCTAGCACTTATGGATTTATTATCTTGCTGTATTGTATTCAATATATAACCTATTAATCTCATCCTTGTCAAGGAAACAAAAACTCATATTAATCTCAATGTCATATTTATGTGTTGTTACCCATAAGTAAAATTATTCAATAAAAACTATAGTTTTGCAAAAAAAAAAAAAAAAA
complementation of GMP synthetase mutant [1]: no complementation was observed | transformants producing a lighter-colored (yellow) seed (B. carinata; CJAS1 cDNA antisense): over 50% | seed coat color of transformed plants (B. carinata; antisense orientation, 35S promoter, B. carinata): yellow-colored seed coats
